Key:
MDA-MB-231 cells = experiment: Microchannel migration device assay, MDA-MB-231 cells; type: cell-based, human
Protocol: Cell seeding and live cell migration experiments: Cells were grown to continency, trypsinized, and resuspended in serum-free medium at 2×10^6 cells/ml. 50 μl of cell suspension was added to the cell inlet well. Cells were incubated in the device for 5-10 minutes at 37° C. to allow initial cell seeding at the base of “Y” channels. The cell suspension was then removed from the cell inlet port. The device was washed with DPBS before the addition of medium to the inlet ports of the device. In select experiments, PI3K activity was inhibited by the addition of 10 μM LY294002 in the medium through the entire course of migration. The migration chamber was moved to a temperature- and CO2-controlled stage-top live cell incubator (Okolab, Italy) mounted on the motorized stage of an inverted Nikon Eclipse Ti microscope (Nikon, Tokyo, Japan) with automated controls (NIS-Elements, Nikon). Migrating cells were imaged with a 10×-magnification phase contrast objective every 10 minutes for up to 16 hours. Analysis of Cell Migration: Video tiles were exported to Image1 for analysis. All cells that entered the channel were tracked while fully inside the channel and before reaching either end of the channel using the lmageJ MTrackJ plugin at 10 minute intervals. Cells were also dynamically traced with the imageJ polygon ROI capability at 30 minute intervals. Dividing cells were not tracked. Cell position data were used to calculate cell speed over each 10 minute interval, and these speeds were averaged to get an overall average speed for each cell. Additionally, the chemotactic index, defined as the cell displacement divided by the total distance travelled by the cell, was calculated. Cell shape data were used to calculate cell circularity and fit elliptical angle using the Measure function in ImageJ Statistical significance was assessed with non-paired Student's t-test. Cells were further defined as migratory or non-migratory. Migratory cells were defined as those cells which reached the bifurcation in the Y-shaped microchannel; all other cells were defined as non-migratory. […]

Hs578t cells = experiment: Microchannel migration device assay, Hs578t cells; type: cell-based; conditions: 10 μM LY294002, 400 μm-long Y-shaped migration channels; control 20±7%
Protocol: (§1) Cell seeding and live cell migration experiments: Cells were grown to continency, trypsinized, and resuspended in serum-free medium at 2×10^6 cells/ml. 50 μl of cell suspension was added to the cell inlet well. Cells were incubated in the device for 5-10 minutes at 37° C. to allow initial cell seeding at the base of “Y” channels. The cell suspension was then removed from the cell inlet port. The device was washed with DPBS before the addition of medium to the inlet ports of the device. In select experiments, PI3K activity was inhibited by the addition of 10 μM LY294002 in the medium through the entire course of migration. The migration chamber was moved to a temperature- and CO2-controlled stage-top live cell incubator (Okolab, Italy) mounted on the motorized stage of an inverted Nikon Eclipse Ti microscope (Nikon, Tokyo, Japan) with automated controls (NIS-Elements, Nikon). Migrating cells were imaged with a 10×-magnification phase contrast objective every 10 minutes for up to 16 hours. Analysis of Cell Migration: Video tiles were exported to Image1 for analysis. All cells that entered the channel were tracked while fully inside the channel and before reaching either end of the channel using the lmageJ MTrackJ plugin at 10 minute intervals. Cells were also dynamically traced with the imageJ polygon ROI capability at 30 minute intervals. Dividing cells were not tracked. […]

Bt549 cells = experiment: Microchannel migration device assay, Bt549 cells; type: cell-based; conditions: 10 μM LY294002, 400 μm-long Y-shaped migration channels; control 32±8%
Protocol: as §1

O=c1cc(N2CCOCC2)oc2c(-c3ccccc3)cccc12 [LY294002]
migratory cell population (MDA-MB-231 cells; 10 μM LY294002, 200 μm-long microchannels, control 25%): 65% | ratio of contact guided cells (MDA-MB-231 cells; 10 μM LY294002, 200 μm-long microchannels, control 66%): 93% | percentage of migratory cells (MDA-MB-231 cells; 10 μM LY294002, 400 μm-long Y-shaped migration channels, control 22±3%): 34±8% | percentage of migratory cells (Hs578t cells): 15±2% | percentage of migratory cells (Bt549 cells): 19±1%

— patent publication US20210379589A1, “Microfluidic Chip For Analysis Of Cell Motility And Methods For Using Same” (The Johns Hopkins University, priority 2013, published 2021)
